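Cultured in 96-well plates, cells were exposed to test compound for 48 hours across five concentrations. Here, GI50 denotes the concentration required for 50% inhibition of growth. Definition used: TGI = concentration required for complete inhibition of growth.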
Experiments:
Assay in all cases: growth of human tumour cells (NCI), 48 h
MALME-3M melanoma = test system: MALME-3M melanoma
KM12 colon = test system: KM12 colon
HCT-116 colon = test system: HCT-116 colon
TK-10 renal = test system: TK-10 renal
SF-295 CNS = test system: SF-295 CNS
A549 NSCLC = test system: A549 NSCLC
UO-31 renal = test system: UO-31 renal
NCI-H522 lung = test system: NCI-H522 lung
MOLT-4 leukemia = test system: MOLT-4 leukemia
NCI-H460 lung = test system: NCI-H460 lung
NCI-H23 lung = test system: NCI-H23 lung
OVCAR-5 ovarian = test system: OVCAR-5 ovarian
SNB-19 CNS = test system: SNB-19 CNS
MDA-MB-435 = test system: MDA-MB-435
HOP-92 NSCLC = test system: HOP-92 NSCLC
HL-60(TB) leukemia = test system: HL-60(TB) leukemia
A498 renal = test system: A498 renal
SR leukemia = test system: SR leukemia
HCT-15 colon = test system: HCT-15 colon
CAKI-1 renal = test system: CAKI-1 renal
SF-539 CNS = test system: SF-539 CNS
K-562 leukemia = test system: K-562 leukemia
SK-MEL-2 melanoma = test system: SK-MEL-2 melanoma
PC-3 prostate = test system: PC-3 prostate
MDA-MB-231 breast = test system: MDA-MB-231 breast
786-0 renal = test system: 786-0 renal
RXF 393 renal = test system: RXF 393 renal
EKVX NSCLC = test system: EKVX NSCLC
NCI-H226 lung = test system: NCI-H226 lung
IGROV1 ovarian = test system: IGROV1 ovarian
OVCAR-4 ovarian = test system: OVCAR-4 ovarian
DU-145 prostate = test system: DU-145 prostate
T-47D breast = test system: T-47D breast
ACHN renal = test system: ACHN renal
SN12C renal = test system: SN12C renal
RPMI-8226 leukemia = test system: RPMI-8226 leukemia
OVCAR-8 ovarian = test system: OVCAR-8 ovarian
SNB-75 CNS = test system: SNB-75 CNS
UACC-257 melanoma = test system: UACC-257 melanoma
MCF7 breast = test system: MCF7 breast
OVCAR-3 ovarian = test system: OVCAR-3 ovarian
NCI/ADR-RES ovarian = test system: NCI/ADR-RES ovarian
BT-549 breast = test system: BT-549 breast
SK-OV-3 ovarian = test system: SK-OV-3 ovarian
SK-MEL-28 melanoma = test system: SK-MEL-28 melanoma
SW-620 colon = test system: SW-620 colon
UACC-62 melanoma = test system: UACC-62 melanoma
HT29 colon = test system: HT29 colon
LOX IMVI melanoma = test system: LOX IMVI melanoma
HS 578T breast = test system: HS 578T breast
CCRF-CEM leukemia = test system: CCRF-CEM leukemia
COLO 205 colon = test system: COLO 205 colon
SF-268 CNS = test system: SF-268 CNS
U251 CNS = test system: U251 CNS
HOP-62 NSCLC = test system: HOP-62 NSCLC
SK-MEL-5 melanoma = test system: SK-MEL-5 melanoma
HCC-2998 colon = test system: HCC-2998 colon
M14 melanoma = test system: M14 melanoma

With O=C(CSSCC(=O)c1ccc(Cl)cc1)c1ccc(Cl)cc1 the GI50 (MALME-3M melanoma) was 3.19 µM, the TGI (MALME-3M melanoma) was 17 µM and the GI50 (KM12 colon) was 3.82 µM. For the same compound, the TGI (KM12 colon) was 24.4 µM, the GI50 (HCT-116 colon) was 3.79 µM and the TGI (HCT-116 colon) was 14.8 µM. It also gave a GI50 (TK-10 renal) of 3.83 µM, a TGI (TK-10 renal) of 13.8 µM and a GI50 (SF-295 CNS) of 2.58 µM. For the same compound, the TGI (SF-295 CNS) was 15.2 µM, the GI50 (A549 NSCLC) was 10.4 µM and the TGI (A549 NSCLC) was 43.2 µM. For the same compound, the GI50 (UO-31 renal) was 3.48 µM, the TGI (UO-31 renal) was 17.5 µM and the GI50 (NCI-H522 lung) was 3.56 µM. The TGI (NCI-H522 lung) was 15.3 µM, the GI50 (MOLT-4 leukemia) was 3.28 µM and the TGI (MOLT-4 leukemia) was over 100 µM. It also gave a GI50 (NCI-H460 lung) of 3.35 µM, a TGI (NCI-H460 lung) of 26.9 µM and a GI50 (NCI-H23 lung) of 8.22 µM. For the same compound, the TGI (NCI-H23 lung) was 30.3 µM, the GI50 (OVCAR-5 ovarian) was 5.83 µM and the TGI (OVCAR-5 ovarian) was 21.5 µM. The GI50 (SNB-19 CNS) was 4.94 µM, the TGI (SNB-19 CNS) was 40.3 µM and the GI50 (MDA-MB-435) was 2.57 µM. It also gave a TGI (MDA-MB-435) of 11 µM, a GI50 (HOP-92 NSCLC) of 5.37 µM and a TGI (HOP-92 NSCLC) of 19.4 µM. The GI50 (HL-60(TB) leukemia) was 3.75 µM, the TGI (HL-60(TB) leukemia) was over 100 µM and the GI50 (A498 renal) was 9.77 µM. The TGI (A498 renal) was 23 µM, the GI50 (SR leukemia) was 2.82 µM and the TGI (SR leukemia) was over 100 µM. For the same compound, the GI50 (HCT-15 colon) was 6.73 µM, the TGI (HCT-15 colon) was 28.6 µM and the GI50 (CAKI-1 renal) was 4.99 µM. For the same compound, the TGI (CAKI-1 renal) was 28.6 µM, the GI50 (SF-539 CNS) was 7.36 µM and the TGI (SF-539 CNS) was 23.8 µM. For the same compound, the GI50 (K-562 leukemia) was 3.28 µM, the TGI (K-562 leukemia) was over 100 µM and the GI50 (SK-MEL-2 melanoma) was 3.8 µM. For the same compound, the TGI (SK-MEL-2 melanoma) was 15.1 µM, the GI50 (PC-3 prostate) was 6.12 µM and the TGI (PC-3 prostate) was 30.5 µM. It also gave a GI50 (MDA-MB-231 breast) of 4.93 µM, a TGI (MDA-MB-231 breast) of 24.2 µM and a GI50 (786-0 renal) of 4.41 µM. For the same compound, the TGI (786-0 renal) was 14.5 µM, the GI50 (RXF 393 renal) was 4.49 µM and the TGI (RXF 393 renal) was 14.7 µM. For the same compound, the GI50 (EKVX NSCLC) was 9.8 µM, the TGI (EKVX NSCLC) was over 100 µM and the GI50 (NCI-H226 lung) was 11.7 µM. For the same compound, the TGI (NCI-H226 lung) was 30.7 µM, the GI50 (IGROV1 ovarian) was 5.83 µM and the TGI (IGROV1 ovarian) was 26.6 µM. The GI50 (OVCAR-4 ovarian) was 18.3 µM, the TGI (OVCAR-4 ovarian) was 93.9 µM and the GI50 (DU-145 prostate) was 4.77 µM. The TGI (DU-145 prostate) was 91.3 µM, the GI50 (T-47D breast) was 8.66 µM and the TGI (T-47D breast) was 45.2 µM. The GI50 (ACHN renal) was 8.75 µM, the TGI (ACHN renal) was 24.1 µM and the GI50 (SN12C renal) was 3.7 µM. The TGI (SN12C renal) was 36.4 µM, the GI50 (RPMI-8226 leukemia) was 3.2 µM and the TGI (RPMI-8226 leukemia) was 12.3 µM. It also gave a GI50 (OVCAR-8 ovarian) of 5.06 µM, a TGI (OVCAR-8 ovarian) of 23.2 µM and a GI50 (SNB-75 CNS) of 6.62 µM. For the same compound, the TGI (SNB-75 CNS) was 21.4 µM, the GI50 (UACC-257 melanoma) was 5.18 µM and the TGI (UACC-257 melanoma) was 34.4 µM. For the same compound, the GI50 (MCF7 breast) was 3.76 µM, the TGI (MCF7 breast) was 17.8 µM and the GI50 (OVCAR-3 ovarian) was 5.39 µM. It also gave a TGI (OVCAR-3 ovarian) of 26.1 µM, a GI50 (NCI/ADR-RES ovarian) of 2.69 µM and a TGI (NCI/ADR-RES ovarian) of 13.1 µM. The GI50 (BT-549 breast) was 8.92 µM, the TGI (BT-549 breast) was 39.9 µM and the GI50 (SK-OV-3 ovarian) was 4.34 µM. For the same compound, the TGI (SK-OV-3 ovarian) was 22.4 µM, the GI50 (SK-MEL-28 melanoma) was 5.83 µM and the TGI (SK-MEL-28 melanoma) was 22.5 µM. The GI50 (SW-620 colon) was 4.13 µM, the TGI (SW-620 colon) was 23.6 µM and the GI50 (UACC-62 melanoma) was 3.1 µM. For the same compound, the TGI (UACC-62 melanoma) was 14.5 µM, the GI50 (HT29 colon) was 3.42 µM and the TGI (HT29 colon) was 17 µM. The GI50 (LOX IMVI melanoma) was 2.6 µM, the TGI (LOX IMVI melanoma) was 8.2 µM and the GI50 (HS 578T breast) was 7.51 µM. The TGI (HS 578T breast) was over 100 µM, the GI50 (CCRF-CEM leukemia) was 3.39 µM and the TGI (CCRF-CEM leukemia) was over 100 µM. For the same compound, the GI50 (COLO 205 colon) was 14.2 µM, the TGI (COLO 205 colon) was 29.8 µM and the GI50 (SF-268 CNS) was 4.3 µM. For the same compound, the TGI (SF-268 CNS) was 64.7 µM, the GI50 (U251 CNS) was 4.16 µM and the TGI (U251 CNS) was 17.5 µM. It also gave a GI50 (HOP-62 NSCLC) of 5.03 µM, a TGI (HOP-62 NSCLC) of 21.7 µM and a GI50 (SK-MEL-5 melanoma) of 3.32 µM. The TGI (SK-MEL-5 melanoma) was 10.5 µM, the GI50 (HCC-2998 colon) was 8.56 µM and the TGI (HCC-2998 colon) was 22.2 µM. It also gave a GI50 (M14 melanoma) of 5.59 µM and a TGI (M14 melanoma) of 22.1 µM.
